{
  "source": "patent US20240108740A1",
  "about": "“THERAPEUTIC COMPOSITIONS INCLUDING SPN10 AND USES THEREOF” (Stealth BioTherapeutics Inc., priority 2022, published 2024)",
  "key": {"neuronal N2A cells": {"test_system": "neuronal N2A cells", "assay": "Example 21: intracellular ROS and cell survival after t-BHP", "assay_type": "cell-based", "settings": "t-BHP 0.5 or 1 mM, 40 min; then 4 hours", "experimental": "Cells will be washed twice and incubated in medium alone or medium containing varying concentrations of peptide conjugates, aromatic-cationic peptides or SPN10(s) with or without aromatic-cationic peptides for 4 hours. Intracellular ROS will be measured using carboxy-H2DCFDA (Molecular Probes, Portland, OR, U.S.A.). Cell death will be measured using an MTS cell proliferation assay (Promega, Madison, WI)."}, "Sprague-Dawley rats [1]": {"test_system": "Sprague-Dawley rats", "assay": "Example 40: contrast-induced nephropathy in diabetic animals", "assay_type": "in vivo, rat", "settings": "iohexol", "experimental": "Animal model: Impaired renal function caused by diabetes is one of the major predisposing factors for contrast induced nephropathy (McCullough, et al., J. Am. Coll. Cardio., 2008, 51, 1419-1428). In this experiment, a total of 57 Sprague-Dawley rats will be fed a high-fat diet for 6 weeks, followed by the administration of low-dose streptozotocin (30 mg/kg) for a period of 9 weeks. Blood glucose, serum creatinine and Cystatin C will be measured. Animals meeting the following criteria (n=20) will advance to CIN studies: Scr>250 μM, Cystatin C>750 ng/mL and blood glucose>=[…]. […]\nOn day 1, serum samples will be collected and total urine protein will be measured using a Bradford assay. […] Samples will be analyzed by students t-test and differences will be considered significant at p<0.05.\nRenal function: Renal function will be assessed by determining serum and urinary creatinine at baseline, 48 hours and 72 hours following dye administration. The creatinine clearance will be calculated based on the serum and urinary creatinine and urinary volume. Urinary protein concentration will be determined by Bradford Protein Assay kit (Sigma, St. Louis, MO, U.S.A.), and Cystatin C will be measured using a Westang Rat Cystatin C kit (Shanghai, P.R.C.)."}, "Sprague-Dawley rats [2]": {"test_system": "Sprague-Dawley rats", "assay": "Example 41: contrast-induced nephropathy in glycerol-induced rhabdomyolysis", "assay_type": "in vivo, rat", "settings": "25% glycerin + diatrizoate", "experimental": "Animal model: This Example will utilize animals subjected to glycerol-induced rhabdomyolysis, as previously described. Parvez, et al., Invest. Radiol., 24:698-702 (1989); Duan, et al., Acta Radiologica, 41:503-507(2000). Sprague-Dawley rats with body weight of 300-400 g will be dehydrated for 24 hours followed by intramuscular (i.m.) injection of 25% glycerol solution (v/v) at the dose of 10 mL/kg. Twenty-four hours later, the animals will be administered a contrast dye with peptide conjugates, aromatic-cationic peptides, SPN10(s) with or without aromatic-cationic peptides, or control vehicle according to the following: 1) 25% glycerin+Saline+PBS (n=6), 2) 25% glycerin+diatrizoate+PBS (n=7), 3) 25% glycerin+diatrizoate+peptide conjugates (n=7), 4) 25% glycerin+diatrizoate+aromatic-cationic peptides (n=7), 5) 25% glycerin+diatrizoate+SPN10(s), and 6) 25% glycerin+diatrizoate+SPN10(s)+aromatic-cationic peptides. […] Samples will be analyzed by students t-test and differences will be considered significant at p<0.05.\nRenal function: Renal function will be assessed by determining serum and urinary creatinine at baseline, 24 hours after dehydration, and 48 hours following contrast dye administration. Creatinine clearance will be calculated based on serum and urinary creatinine levels and urinary volume. Urinary albumin concentration will be determined using a competition ELISA assay."}},
  "note": "Residues, ends and D or L forms follow the SMILES beside them.",
  "data": [
    {"smiles": "N=C(N)NCCC[C@H](NC(=O)[C@@H](N)Cc1c[nH]c2ccccc12)C(=O)N[C@@H](Cc1c[nH]c2ccccc12)C(=O)N[C@@H](CCCCN)C(N)=O", "note": "[SPN10, H-L-Trp-L-Arg-L-Trp-L-Lys-NH2] (H-WRWK-NH2)", "values": [
      {"measurement": "cell survival (MTS)", "setting": "neuronal N2A cells", "value": "increase cell survival"},
      {"measurement": "intracellular ROS (carboxy-H2DCFDA)", "setting": "neuronal N2A cells", "value": "dose-dependently reduce intracellular ROS"},
      {"measurement": "elevated serum Cystatin C and reduced creatinine clearance following contrast dye", "setting": "Sprague-Dawley rats [1]", "value": "attenuate these effects"},
      {"measurement": "albuminuria after contrast dye", "setting": "Sprague-Dawley rats [2]", "value": "attenuate or prevent albuminuria"},
      {"measurement": "creatinine clearance after contrast dye", "setting": "Sprague-Dawley rats [2]", "value": "attenuate or prevent reduced creatinine clearance"},
      {"measurement": "loss of proximal tubule brush border, glomerular swelling and tubular protein cast deposition (PAS)", "setting": "Sprague-Dawley rats [2]", "value": "attenuate or prevent these effects"}
    ]}
  ]
}
